The text below walks through data of PubChem BioAssay (NCI).

What all share (assay): DTP human tumour cell line panel, 48 h
The test system of experiment [1] is HCT-116 colon.
The subject of experiment [2] is MDA-MB-231 breast.
In experiment [3] the test system is SNB-75 CNS.
For experiment [4], the system named is MDA-MB-435.
For experiment [5], the system named is NCI-H460 lung.
Experiment [6] has as its system MDA-N.
Experiment [7] relates to A549 NSCLC.
The test system of experiment [8] is COLO 205 colon.
The test system of experiment [9] is SF-539 CNS.
For experiment [10], the system named is RPMI-8226 leukemia.

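Test compounds were applied to cells in 96-well plates for 48 hours at 5 doses. GI50: concentration for 50% inhibition of growth. Definition used: TGI = concentration required for complete inhibition of growth.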 A value given as a limit tells only on which side of the number the result lay.

Consider `CC(=O)O[C@H]1CC[C@@]2(C)C(=CC[C@@H]3[C@@H]2CC[C@]2(C)c4nc(Cl)ccc4C[C@@H]32)C1`, for which the TGI in experiment [1] is more than 100 µM; in experiment [2] it was more than 100 µM; in experiment [3], 94 µM; in experiment [4], more than 100 µM; in experiment [5], more than 100 µM; in [6], more than 100 µM. Moreover, the TGI in [7] and in [8] was more than 100 µM each time.
Regarding `COC(=O)C(=O)Cc1nc2ccccc2o1`, the TGI in experiment [1], in [3], in experiment [9] and in experiment [5] was more than 100 µM in each case.
`COc1cc(Nc2nc3cc(C(F)(F)F)ccc3n3cccc23)cc(OC)c1OC`: the TGI in experiment [1], in experiment [3], in experiment [9], in experiment [4], in experiment [10] and in experiment [6] was more than 100 µM each time. In addition, the TGI in experiment [7] and in [8] was more than 100 µM throughout.
With `N#CCCC1(CCC#N)CCCCCCCCC(CCC#N)(CCC#N)C(O)C1O` (stereo not given), the TGI in experiment [1] is more than 100 µM; in experiment [3] it was more than 100 µM; in experiment [9], 85.8 µM; in experiment [4] it was more than 100 µM; in experiment [5] it was more than 100 µM; in experiment [10] it was 58.2 µM. Moreover, the TGI in experiment [6], in experiment [7] and in experiment [8] was more than 100 µM each time.
`COC(=O)Cc1c(-c2c(CC(=O)OC)c3ccccc3n2C2OC(COC(C)=O)C(OC(C)=O)C(OC(C)=O)C2OC(C)=O)[nH]c2ccccc12` (stereo not given): the TGI in [1], in experiment [2], in [4], in experiment [5], in experiment [10] and in [6] was more than 100 µM throughout. Besides, the TGI in [7] and in experiment [8] was more than 100 µM throughout.
Turning to `O=NN(CCF)C(=O)NC1CCSCC1`, the total growth inhibition concentration (TGI) in experiment [1], in [3], in experiment [9], in experiment [5], in [10] and in experiment [7] was more than 100 µM throughout. Further, the TGI in experiment [8] is more than 100 µM.
In the case of `Nc1ncnc2c1ncn2[C@@H]1O[C@H](COC(c2ccccc2)(c2ccccc2)c2ccccc2)[C@@H](OC(=S)Oc2ccccc2)[C@@H]1F`, the TGI in [1] was found to be 13.8 µM; in [2] it was 23.7 µM; in experiment [3], 32.6 µM; in experiment [9], 20.9 µM; in [4], 19.1 µM; in [5], 46.3 µM. Moreover, the results for the TGI in experiment [10], in experiment [7] and in experiment [8] were more than 100 µM, 43.7 µM and 24.8 µM, respectively.
For `COc1cccc(C2c3cc4c(cc3OC3COC(=O)C32)OCO4)c1OC` (stereo not given), the TGI in [1], in experiment [2], in [3], in experiment [9], in experiment [5] and in [6] was more than 100 µM throughout. For the same compound, the TGI in [7] and in experiment [8] was more than 100 µM each time.
For the compound `CN1CCN(P2(=S)Oc3ccc4ccccc4c3-c3c(ccc4ccccc34)O2)CC1`, the TGI was more than 100 µM in experiment [1]; more than 100 µM in experiment [3]; 42.6 µM in [9]; 42.1 µM in [5]; 43.1 µM in [10]; more than 100 µM in experiment [7]. In [8], this compound gave a TGI of 28.8 µM.
Take `COc1ccc(Nc2ccc([N+](=O)[O-])cc2[N+](=O)[O-])cc1CN(CCCl)CCCl`: the GI50 in experiment [1] is 1.16 µM; in experiment [2], 2.69 µM; in experiment [3], 2.39 µM; in [9] it was 1.85 µM; in [4] it was 1.92 µM; in experiment [5], 1.82 µM. Moreover, the GI50 is 1.86 µM in experiment [10], 4.43 µM in experiment [7] and 1.8 µM in experiment [8]. The TGI was 3.75 µM in [1]; 9.44 µM in experiment [2]; 13.4 µM in experiment [3]; 4.85 µM in [9]; 4.39 µM in experiment [4]; 6.16 µM in experiment [5]. Moreover, the TGI was found to be 9.75 µM in experiment [10], 30.7 µM in experiment [7] and 7.84 µM in experiment [8].
`CCN(CC)c1nnc(CCCCCCCCc2nnc(N(CC)CC)o2)o1`: the TGI in experiment [1], in experiment [2], in experiment [3], in [9], in experiment [4] and in [5] was more than 100 µM each time. The TGI in experiment [6], in [7] and in [8] was more than 100 µM each time.
As for `C=C1CC[C@@H](C)[C@](C)(CCc2ccoc2)C/C=C\C=C/1C(=O)O`, the TGI in [1] is 54.6 µM; in experiment [2], more than 100 µM; in experiment [3], more than 100 µM; in [9], 42.6 µM; in [4], more than 100 µM; in [5] it was more than 100 µM. The values for the TGI in experiment [6], in experiment [7] and in experiment [8] were 66.1 µM, more than 100 µM and 49.4 µM, respectively.
For `Nc1ccc(Nc2cc(=O)[nH]c(=O)[nH]2)cc1Cl`, the TGI in experiment [1], in experiment [2], in experiment [9], in experiment [4], in [5] and in experiment [10] was more than 100 µM each time. In addition, the TGI in experiment [6], in experiment [7] and in [8] was more than 100 µM in each case.
For the compound `Cc1cnc2c(c1C)C(=O)c1ccccc1C2=O`, the TGI in [1] was more than 100 µM; in experiment [2], 93.9 µM; in [3], more than 100 µM; in [9], more than 100 µM; in [4], 39.1 µM; in experiment [5], 53.8 µM. Besides, the TGI in [10], in experiment [7] and in experiment [8] was more than 100 µM each time.
Regarding `O=C1CCCC/C1=C\c1ccc(Cl)c(Cl)c1`, the TGI in experiment [1] is 31.9 µM; in experiment [3] it was 46.8 µM; in experiment [9] it was 32.5 µM; in experiment [5], 42.6 µM; in experiment [7], more than 100 µM; in experiment [8], 96.6 µM.
As to `CCN(CCN(CC)C(=O)Nc1ccccc1)C(=O)Nc1ccccc1`, the TGI in [1], in [2], in [3], in experiment [5], in experiment [10] and in [7] was more than 100 µM each time. In experiment [8], this compound registered a TGI of more than 100 µM.
On to `CCCCCCCCCCCC[N+](CCCCCCCCCCCC)=C1SCCS1`, for which the TGI in experiment [1] worked out at 10.9 µM; in experiment [3], 30 µM; in experiment [9], 25.5 µM; in [5], 20.5 µM; in experiment [10] it was 4.4 µM; in experiment [7] it was 18 µM. Besides, the TGI in experiment [8] worked out at 20.4 µM.
As to `CCOC(=O)c1c[nH]c2ccc3c(c2c1=O)S(=O)(=O)CC3` (tested in a mixture with another compound), the TGI in experiment [1], in experiment [3], in experiment [9], in experiment [5], in [10] and in experiment [7] was more than 100 µM in each case. In [8], this compound showed a TGI of more than 100 µM.
`COc1cc(O)c2c(=O)c(OC)c(-c3ccc(OC)c(OC)c3)oc2c1`: the GI50 in [1] was 68.7 µM; in experiment [2], more than 100 µM. Further, the concentration for total growth inhibition (TGI) in [1], in [2], in experiment [4], in experiment [5], in [10] and in [6] was more than 100 µM throughout. Moreover, the TGI in [7] and in [8] was more than 100 µM in each case.
As to `C=C(C)[C@@H]1CC[C@]2(C(=O)OC)CC[C@]3(C)[C@H](CC[C@@H]4[C@@]5(C)CC[C@H](O)C(C)(C)[C@@H]5CC[C@]43C)[C@@H]12`, the TGI in [1] is 37.4 µM; in experiment [2] it was more than 100 µM; in experiment [3] it was 59 µM; in experiment [9], 34.9 µM; in experiment [4] it was 42.5 µM; in [5], 38.4 µM. Further, the TGI came to 42.7 µM in experiment [6] and 37.7 µM in experiment [7].
As for `O=C1N[C@@H]2C(=C[C@H](O)[C@@H](O)[C@H]2O)c2cc3c(c(O)c21)OCO3`, the TGI in experiment [1] stood at 0.0569 µM; in experiment [3], 0.0813 µM; in experiment [9], 0.0486 µM; in experiment [5], 0.119 µM; in experiment [10], 0.0858 µM; in experiment [7], 0.306 µM.
On to `CO/N=C1/c2sccc2[C@H](NC(=O)C(Cc2ccccc2)NC(=O)OC(C)(C)C)[C@@H]1O` (stereo not given in full), for which the TGI in [1], in experiment [2], in [3], in [9], in [4] and in experiment [5] was more than 100 µM each time. Also, the TGI in [6], in [7] and in experiment [8] was more than 100 µM in each case.
With `O=C(c1ccco1)N(C(=O)N1CCN(c2ccccc2)CC1)S(=O)(=O)c1ccccc1`, the TGI was 44 µM in [1]; more than 100 µM in experiment [2]; 62.9 µM in experiment [3]; 41.1 µM in [9]; 56.3 µM in [4]; more than 100 µM in experiment [5]. In addition, the TGI is 49.6 µM in experiment [6], more than 100 µM in [7] and 82.4 µM in experiment [8].
Turning to `CCCn1c(=O)c(N2CCN(c3ccccc3)CC2)nc2sc3ccccc3c21`, the TGI in experiment [1], in [2], in [3], in experiment [9], in [4] and in experiment [5] was more than 100 µM in each case. In addition, the TGI in experiment [6], in [7] and in [8] was more than 100 µM throughout.
Take `C[N+](C)(C)c1ncnc2c1ncn2C1CCCO1` (stereo not given): the TGI in experiment [1], in experiment [3], in experiment [9], in experiment [4], in [5] and in experiment [10] was more than 100 µM throughout. The TGI in experiment [6], in [7] and in experiment [8] was more than 100 µM in each case.
Consider `O=C1NC2CCCCCC2C12CCCCC2` (stereo not given), for which the TGI in experiment [1], in experiment [3], in experiment [9], in [5] and in [7] was more than 100 µM in each case.
As to `N#C/C(C(=S)NCc1ccccc1)=C(/N)N1CCCC1`, the TGI in [1], in experiment [2], in experiment [9], in experiment [4], in experiment [5] and in [10] was more than 100 µM each time. The TGI in experiment [6], in experiment [7] and in experiment [8] was more than 100 µM in each case.
Regarding `O=C1Cc2c([nH]c3ccc(C(=O)O)cc23)-c2ccccc2N1`, the TGI in experiment [1], in experiment [2], in experiment [9], in experiment [4], in experiment [5] and in [10] was more than 100 µM in each case. Also, the TGI in experiment [6], in experiment [7] and in experiment [8] was more than 100 µM throughout.
As to `COc1cccc(/N=N/C(=NNC(=O)c2ccc(C)cc2)c2ccc(N(C)C)cc2)c1`, the TGI in experiment [1], in experiment [2], in [9], in [4], in [5] and in experiment [10] was more than 100 µM in each case. Moreover, the concentration for total growth inhibition (TGI) in experiment [6], in [7] and in [8] was more than 100 µM each time.
In the case of `O=c1[nH]nc(-c2ccccc2)n1O`, the TGI in experiment [1], in experiment [2], in experiment [9], in [4], in experiment [5] and in [10] was more than 100 µM each time. Moreover, the TGI in [6], in experiment [7] and in experiment [8] was more than 100 µM each time.
